Measurements: patent US20170340588A1, “MODULATION OF REGULATORY T CELLS VIA G-COUPLED PROTEIN RECEPTOR 43” (President and Fellows of Harvard College, priority 2013, published 2017)

What was measured:
HDAC = HDAC expression (RTqPCR) and histone acetylation (Western blot) in cTreg; type: cell-based, mice; conditions: 0.1 mM, 24 hours
Procedure: Treg were isolated from the colon, small intestine, mesenteric lymph node or spleen of C57BL/6 Foxp3^YFP-Cre mice and FACS-sorted based on expression of YFP. RNA samples were prepared using the RNeasy Mini Kit (Qiagen) and cDNA was synthesized using the Bio-Rad iScript cDNA Synthesis Kit. Real-time (RT)-qPCR was performed using the KAPA SYBR FAST Universal qPCR Kit (KAPA Biosystems) and a Stratagene MX3005P (Agilent Technologies). The following primer sequences were used:
Colonic lamina propria Treg were isolated and whole cell lysates generated using RIPA buffer in the presence of protease inhibitors. Protein lysates were resolved using SDS-PAGE and transferred to PVDF membrane using a Bio-Rad wet transfer apparatus. Blots were probed with antibodies directed against acetyl-histone H3 (K9) and histone H3 (All from Cell Signaling Technologies). After incubation with the appropriate HRP-conjugated antibody, ECL was used for developing. Densitometry analysis of Western blots was performed using Image-J software available on the world wide web at rsbweb.nih.gov/ij/.

colonic Treg (cTreg) = test: Antibiotic (vancomycin) treatment of SPF mice with or without SCFA; type: in vivo; conditions: Ffar2-/- vs Ffar2+/+ mice
Procedure: Science 341: 1645 (2013). […] The crude cell suspension was loaded onto a 40%/90% Percoll (GE Healthcare) gradient and centrifuged at 720 x g for 25 min at room temperature with acceleration and brake turned off. LP lymphocytes were collected from the 40%/90% interface. Intracellular staining of the transcription factors Foxp3, Helios and T-bet was performed using the Foxp3 Fix/Perm Buffer Set (Biolegend). For detection of intracellular cytokines, cells were first stimulated for 4 h with 50 ng/ml PMA and 1 μg/ml ionomycin in the presence of Brefeldin A (All obtained from Sigma), followed by staining for surface markers. Cells were then fixed and permeabilized using the Foxp3 Fix/Perm Buffer Set (Biolegend) and stained for intracellular cytokines. The following antibodies were used: […] All antibodies were obtained from Biolegend unless otherwise noted. Flow cytometry was performed using LSRII and data were analyzed with FlowJo software (TreeStar, Inc.). Cell sorting was performed using a […] at the Dana-Farber Cancer Institute Flow Cytometry Core.

Ffar2 = molecular target: T1, Ffar2 (Homo sapiens, UniProt O15552); conditions: among SCFA; Le Poul et al. 2003; cited from earlier work
T1 sequence (O15552 1-330): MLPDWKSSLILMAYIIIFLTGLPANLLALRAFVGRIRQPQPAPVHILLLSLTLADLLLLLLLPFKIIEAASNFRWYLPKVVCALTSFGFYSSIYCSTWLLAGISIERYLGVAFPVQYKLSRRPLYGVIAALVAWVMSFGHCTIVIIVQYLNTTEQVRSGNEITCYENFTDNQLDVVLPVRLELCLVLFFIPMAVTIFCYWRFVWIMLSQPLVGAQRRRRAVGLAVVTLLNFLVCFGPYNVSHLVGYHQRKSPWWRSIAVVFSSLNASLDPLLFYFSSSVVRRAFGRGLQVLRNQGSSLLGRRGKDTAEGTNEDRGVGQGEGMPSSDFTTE

For `CCC(=O)O` [Propionate, propionic acid], the “cTreg expression of HDAC6 and HDAC9” value (HDAC; Ffar2+/+) was “reduced”, the “cTreg expression of class I HDAC1 and HDAC2 or class IIa HDAC7” value (HDAC; Ffar2+/+) was “did not reduce” and the “histone acetylation (H3K9)” value (HDAC; cTreg, required Ffar2) was “enhanced”. For the same compound, the “restoration of cTreg populations and numbers in the setting of vancomycin treatment” value (colonic Treg (cTreg)) was “Ffar2 was necessary” and the “affinity for Ffar2” value (Ffar2) was “highest affinity”.
